Source: ChEMBL document CHEMBL1201862, “PubChem BioAssay data set” (2004)
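Grown in 96-well plates, cells were treated for 48 hours with each compound at five concentrations. Insufficient inhibition: endpoint recorded as highest concentration tested. Abbreviation: GI50, concentration required for 50% inhibition of growth.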 Active and inactive are the calls of the source. No stated cut-off is given here; in the data, active = GI50 up to about 1.1 µM and inactive = higher.

Experiments:
Assay in all cases: inhibition of tumour cell growth, NCI panel, 48 h
ACHN = tested on: ACHN
BT-549 = tested on: BT-549
CAKI-1 = tested on: CAKI-1
DU-145 = tested on: DU-145
EKVX = tested on: EKVX
HCC 2998 = tested on: HCC 2998
HCT-15 = tested on: HCT-15
HOP-62 = tested on: HOP-62
Hs-578T = tested on: Hs-578T
IGROV-1 = tested on: IGROV-1
KM12 = tested on: KM12
M14 = tested on: M14
MCF7 = tested on: MCF7
MDA-MB-231 = tested on: MDA-MB-231
Malme-3M = tested on: Malme-3M
NCI-H226 = tested on: NCI-H226
NCI-H23 = tested on: NCI-H23
NCI-H460 = tested on: NCI-H460
NCI-H522 = tested on: NCI-H522
NCI/ADR-RES = tested on: NCI/ADR-RES
OVCAR-3 = tested on: OVCAR-3
OVCAR-4 = tested on: OVCAR-4
OVCAR-5 = tested on: OVCAR-5
OVCAR-8 = tested on: OVCAR-8
PC-3 = tested on: PC-3
RXF 393 = tested on: RXF 393
SF-268 = tested on: SF-268
SF-539 = tested on: SF-539
SK-MEL-28 = tested on: SK-MEL-28
SK-MEL-2 = tested on: SK-MEL-2
SK-OV-3 = tested on: SK-OV-3
SW-620 = tested on: SW-620
TK-10 = tested on: TK-10
UACC-257 = tested on: UACC-257
UACC-62 = tested on: UACC-62
UO-31 = tested on: UO-31
786-0 = tested on: 786-0
A498 = tested on: A498
A549 = tested on: A549
CCRF-CEM = tested on: CCRF-CEM
COLO 205 = tested on: COLO 205
HCT-116 = tested on: HCT-116
HL-60 = tested on: HL-60
K562 = tested on: K562
LOX IMVI = tested on: LOX IMVI
MDA-MB-435 = tested on: MDA-MB-435
MOLT-4 = tested on: MOLT-4
RPMI-8226 = tested on: RPMI-8226
SF-295 = tested on: SF-295
SK-MEL-5 = tested on: SK-MEL-5
SN12C = tested on: SN12C
SNB-19 = tested on: SNB-19
SNB-75 = tested on: SNB-75
SR = tested on: SR
T47D = tested on: T47D
U-251 = tested on: U-251
HT-29 = tested on: HT-29
HOP-92 = tested on: HOP-92

## CC(C)(C)c1ccc2c(c1)CNCCNCCNCc1cc(C(C)(C)C)ccc1OCC1(CO2)COc2ccc(C(C)(C)C)cc2CNCCNCCNCc2cc(C(C)(C)C)ccc2OC1
ACHN
  GI50: 1.51 µM (inactive)
BT-549
  GI50: 1.5 µM (inactive)
CAKI-1
  GI50: 1.72 µM (inactive)
DU-145
  GI50: 1.49 µM (inactive)
EKVX
  GI50: 0.611 µM (active)
HCC 2998
  GI50: 0.339 µM (active)
HCT-15
  GI50: 1.51 µM
HOP-62
  GI50: 1.87 µM (inactive)
Hs-578T
  GI50: 1.44 µM (inactive)
IGROV-1
  GI50: 0.418 µM (active)
KM12
  GI50: 0.243 µM (active)
M14
  GI50: 0.526 µM (active)
MCF7
  GI50: 0.183 µM (active)
MDA-MB-231
  GI50: 1.41 µM (inactive)
Malme-3M
  GI50: 1.94 µM (inactive)
NCI-H226
  GI50: 0.718 µM (active)
NCI-H23
  GI50: 1.52 µM (inactive)
NCI-H460
  GI50: 0.24 µM (active)
NCI-H522
  GI50: 0.186 µM (active)
NCI/ADR-RES
  GI50: 2.17 µM (inactive)
OVCAR-3
  GI50: 1.33 µM (inactive)
OVCAR-4
  GI50: 1.58 µM (inactive)
OVCAR-5
  GI50: 1.72 µM (inactive)
OVCAR-8
  GI50: 1.76 µM (inactive)
PC-3
  GI50: 0.382 µM (active)
RXF 393
  GI50: 2.05 µM (inactive)
SF-268
  GI50: 1.37 µM (inactive)
SF-539
  GI50: 0.375 µM (active)
SK-MEL-28
  GI50: 10 µM (inactive)
SK-MEL-2
  GI50: 0.914 µM (active)
SK-OV-3
  GI50: 1.53 µM (inactive)
SW-620
  GI50: 0.303 µM (active)
TK-10
  GI50: 1.55 µM (inactive)
UACC-257
  GI50: 1.69 µM (inactive)
UACC-62
  GI50: 1.68 µM (inactive)
UO-31
  GI50: 1.72 µM (inactive)

## O=C(OC1=CCN(Br)C1=O)C1=C(O)C(=O)N(Br)C1
786-0
  GI50: 16.7 µM (inactive)
A498
  GI50: > 100 µM (inactive)
A549
  GI50: 42.9 µM (inactive)
ACHN
  GI50: 33.9 µM (inactive)
BT-549
  GI50: 18.2 µM (inactive)
CAKI-1
  GI50: 58.7 µM (inactive)
CCRF-CEM
  GI50: 27.1 µM (inactive)
COLO 205
  GI50: 23.7 µM (inactive)
DU-145
  GI50: 53.2 µM (inactive)
EKVX
  GI50: 25.1 µM (inactive)
HCC 2998
  GI50: 53.8 µM (inactive)
HCT-116
  GI50: 17.8 µM (inactive)
HCT-15
  GI50: 57.3 µM
HL-60
  GI50: 24.5 µM (inactive)
HOP-62
  GI50: 24 µM (inactive)
Hs-578T
  GI50: 27 µM (inactive)
IGROV-1
  GI50: 39.1 µM (inactive)
K562
  GI50: 29.1 µM (inactive)
KM12
  GI50: 32.2 µM (inactive)
LOX IMVI
  GI50: 20.9 µM (inactive)
M14
  GI50: 51.8 µM (inactive)
MCF7
  GI50: 33 µM (inactive)
MDA-MB-231
  GI50: 29.2 µM (inactive)
MDA-MB-435
  GI50: 33.1 µM (inactive)
MOLT-4
  GI50: 22.8 µM (inactive)
Malme-3M
  GI50: 55 µM (inactive)
NCI-H226
  GI50: 54 µM (inactive)
NCI-H23
  GI50: 32.4 µM (inactive)
NCI-H460
  GI50: 38.3 µM (inactive)
NCI-H522
  GI50: 14.3 µM (inactive)
NCI/ADR-RES
  GI50: > 100 µM (inactive)
OVCAR-3
  GI50: 20.8 µM (inactive)
OVCAR-4
  GI50: 30 µM (inactive)
OVCAR-5
  GI50: 21.1 µM (inactive)
OVCAR-8
  GI50: 31.3 µM (inactive)
PC-3
  GI50: 29.3 µM (inactive)
RPMI-8226
  GI50: 24.4 µM (inactive)
RXF 393
  GI50: 20 µM (inactive)
SF-268
  GI50: 24.9 µM (inactive)
SF-295
  GI50: 26.9 µM (inactive)
SK-MEL-28
  GI50: 18.8 µM (inactive)
SK-MEL-2
  GI50: 26.4 µM (inactive)
SK-MEL-5
  GI50: 17.2 µM (inactive)
SK-OV-3
  GI50: 21.5 µM (inactive)
SN12C
  GI50: 17.3 µM (inactive)
SNB-19
  GI50: 20.2 µM (inactive)
SNB-75
  GI50: 24.3 µM (inactive)
SR
  GI50: 21.4 µM (inactive)
SW-620
  GI50: 26.5 µM (inactive)
T47D
  GI50: 18.4 µM (inactive)
TK-10
  GI50: 33 µM (inactive)
U-251
  GI50: 22.5 µM (inactive)
UACC-257
  GI50: 26.9 µM (inactive)
UACC-62
  GI50: 18.1 µM (inactive)
UO-31
  GI50: 45.4 µM (inactive)

## CCCCOC(=O)NC(Nc1ccc(S(N)(=O)=O)cc1)(C(F)(F)F)C(F)(F)F
A498
  GI50: > 100 µM (inactive)
ACHN
  GI50: > 100 µM (inactive)
BT-549
  GI50: > 100 µM (inactive)
CCRF-CEM
  GI50: > 100 µM (inactive)
DU-145
  GI50: > 100 µM (inactive)
EKVX
  GI50: > 100 µM (inactive)
HCC 2998
  GI50: > 100 µM (inactive)
HCT-116
  GI50: > 100 µM (inactive)
HCT-15
  GI50: > 100 µM
HL-60
  GI50: > 100 µM (inactive)
HOP-62
  GI50: > 100 µM (inactive)
HT-29
  GI50: > 100 µM (inactive)
Hs-578T
  GI50: > 100 µM (inactive)
K562
  GI50: > 100 µM (inactive)
KM12
  GI50: > 100 µM (inactive)
LOX IMVI
  GI50: > 100 µM (inactive)
M14
  GI50: > 100 µM (inactive)
MCF7
  GI50: > 100 µM (inactive)
MDA-MB-231
  GI50: > 100 µM (inactive)
MDA-MB-435
  GI50: > 100 µM (inactive)
MOLT-4
  GI50: > 100 µM (inactive)
Malme-3M
  GI50: > 100 µM (inactive)
NCI-H226
  GI50: > 100 µM (inactive)
NCI-H23
  GI50: > 100 µM (inactive)
NCI-H460
  GI50: > 100 µM (inactive)
NCI-H522
  GI50: > 100 µM (inactive)
OVCAR-3
  GI50: > 100 µM (inactive)
OVCAR-5
  GI50: > 100 µM (inactive)
RPMI-8226
  GI50: > 100 µM (inactive)
RXF 393
  GI50: > 100 µM (inactive)
SF-268
  GI50: > 100 µM (inactive)
SF-539
  GI50: > 100 µM (inactive)
SK-MEL-28
  GI50: > 100 µM (inactive)
SK-MEL-2
  GI50: > 100 µM (inactive)
SK-OV-3
  GI50: > 100 µM (inactive)
SN12C
  GI50: > 100 µM (inactive)
SNB-19
  GI50: > 100 µM (inactive)
SNB-75
  GI50: > 100 µM (inactive)
SR
  GI50: > 100 µM (inactive)
T47D
  GI50: > 100 µM (inactive)
TK-10
  GI50: > 100 µM (inactive)
U-251
  GI50: > 100 µM (inactive)
UACC-257
  GI50: > 100 µM (inactive)
UACC-62
  GI50: > 100 µM (inactive)
UO-31
  GI50: 79.8 µM (inactive)

## CCOC(=O)/C(=N/Nc1ccccc1)N1C(=S)N(C)N=C(C)C=C1S
A549
  GI50: > 100 µM (inactive)
ACHN
  GI50: > 100 µM (inactive)
BT-549
  GI50: 76.9 µM (inactive)
CAKI-1
  GI50: > 100 µM (inactive)
CCRF-CEM
  GI50: > 100 µM (inactive)
COLO 205
  GI50: > 100 µM (inactive)
DU-145
  GI50: > 100 µM (inactive)
EKVX
  GI50: > 100 µM (inactive)
HCC 2998
  GI50: > 100 µM (inactive)
HCT-116
  GI50: > 100 µM (inactive)
HCT-15
  GI50: > 100 µM
HL-60
  GI50: > 100 µM (inactive)
HOP-92
  GI50: 47.8 µM (inactive)
HT-29
  GI50: > 100 µM (inactive)
Hs-578T
  GI50: 70 µM (inactive)
IGROV-1
  GI50: > 100 µM (inactive)
K562
  GI50: > 100 µM (inactive)
KM12
  GI50: > 100 µM (inactive)
M14
  GI50: > 100 µM (inactive)
MCF7
  GI50: > 100 µM (inactive)
MDA-MB-231
  GI50: 43.9 µM (inactive)
MDA-MB-435
  GI50: > 100 µM (inactive)
MOLT-4
  GI50: > 100 µM (inactive)
NCI-H23
  GI50: 33.9 µM (inactive)
NCI-H460
  GI50: > 100 µM (inactive)
NCI-H522
  GI50: 27 µM (inactive)
NCI/ADR-RES
  GI50: > 100 µM (inactive)
OVCAR-3
  GI50: > 100 µM (inactive)
OVCAR-4
  GI50: > 100 µM (inactive)
OVCAR-5
  GI50: > 100 µM (inactive)
OVCAR-8
  GI50: > 100 µM (inactive)
RPMI-8226
  GI50: > 100 µM (inactive)
RXF 393
  GI50: 0.465 µM (active)
SF-268
  GI50: 6.82 µM (inactive)
SF-295
  GI50: 28.4 µM (inactive)
SF-539
  GI50: > 100 µM (inactive)
SK-MEL-28
  GI50: > 100 µM (inactive)
SK-MEL-2
  GI50: > 100 µM (inactive)
SK-MEL-5
  GI50: > 100 µM (inactive)
SK-OV-3
  GI50: > 100 µM (inactive)
SN12C
  GI50: > 100 µM (inactive)
SNB-19
  GI50: > 100 µM (inactive)
SNB-75
  GI50: 10 µM (inactive)
SR
  GI50: > 100 µM (inactive)
SW-620
  GI50: > 100 µM (inactive)
T47D
  GI50: 44.2 µM (inactive)
TK-10
  GI50: 86.1 µM (inactive)
U-251
  GI50: 20 µM (inactive)
UACC-257
  GI50: > 100 µM (inactive)
UACC-62
  GI50: 83.4 µM (inactive)
UO-31
  GI50: > 100 µM (inactive)
